Reference: patent US20250034170A1, “SMALL MOLECULE MODULATORS OF GLUCOCEREBROSIDASE ACTIVITY AND USES THEREOF” (Vanqua Bio, Inc., priority 2021, published 2025)

Target: T1, GCase (Homo sapiens, UniProt P04062)
T1 construct: endogenous in cells; host or cells: HeLa cells
T1 sequence (P04062 40-536): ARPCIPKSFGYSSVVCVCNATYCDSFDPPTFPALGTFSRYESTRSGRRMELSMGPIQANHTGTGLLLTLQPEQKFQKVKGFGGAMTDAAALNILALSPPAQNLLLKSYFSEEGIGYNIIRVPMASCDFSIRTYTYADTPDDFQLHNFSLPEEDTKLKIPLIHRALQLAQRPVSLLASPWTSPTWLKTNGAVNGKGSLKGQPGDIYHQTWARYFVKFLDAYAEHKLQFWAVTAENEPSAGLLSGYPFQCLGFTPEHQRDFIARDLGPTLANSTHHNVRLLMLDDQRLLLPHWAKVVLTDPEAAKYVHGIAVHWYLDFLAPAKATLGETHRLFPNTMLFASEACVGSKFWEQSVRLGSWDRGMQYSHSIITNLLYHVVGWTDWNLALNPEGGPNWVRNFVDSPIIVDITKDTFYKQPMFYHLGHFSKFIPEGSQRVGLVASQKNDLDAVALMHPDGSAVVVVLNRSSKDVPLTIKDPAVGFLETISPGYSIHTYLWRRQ
Test: activation of GCase in a live cell PFB assay in HELA cells
Type: cell-based
Protocol: Exemplary compounds were evaluated for activation of GCase in a live cell PFB assay in HELA cells (essentially as described in Ysselstein et al., “LRRK2 kinase activity regulates lysosomal glucocerebrosidase in neurons derived from Parkinson's disease patients” Nature Communications (2019) 10:5570). […] EC50 ranges: A: <10 μM; B: >10-50 μM; C: >50-100 μM; D: >100 μM.

[1] = activation of GCase, EC50 ranges

`Cc1nc(N2CC[C@@]3(CCN(c4ncc5c(C)nn(C6COC6)c5n4)C3)C2)cc(C(F)(F)F)n1` [Cmpd 1080] showed an EC50 [1] of 10 to 50 µM.
In the case of `O=C1N(c2cnc3cnn(CC(F)F)c3n2)CCC12CCN(c1ccc(C(F)(F)F)nc1)CC2` [Compound 119, 2-[1-(2,2-difluoroethyl)-1H-pyrazolo[3,4-b]pyrazin-6-yl]-8-[6-(trifluoromethyl)pyridin-3-yl]-2,8-diazaspiro[4.5]decan-1-one], the EC50 [1] is reported as less than 10 µM.
Work on `Cc1nc(N2CCC3(C2)CN(c2cnc4c(C)nn(CC(F)(F)F)c4n2)C3)cc(C(F)(F)F)n1` [Cmpd 609] yielded an EC50 (EC50 given as range classes) of 10 to 50 µM.
For `Cc1cnc(CN2CC3(CCN(c4cnc5cnn(CC(F)F)c5n4)CC3)CC2=O)s1` [Cmpd 975], the EC50 [1] was 10 to 50 µM.
Work on `Cc1nn(CC(F)F)c2nc(N3CCC4(CC3)CC(=O)N(c3ccc(C(F)(F)F)nc3)C4)ncc12` [Cmpd 832] yielded an EC50 (EC50 given as range classes) of less than 10 µM.
`O=C(c1ccc(C(F)(F)F)nc1)N1CC2(CCN(c3cnc4cnn(CC(F)F)c4n3)CC2)C1` [Cmpd 327] was tested, and the EC50 [1] was 10 to 50 µM.
Work on `Cc1nn(CC(F)F)c2nc(N3CCC4(CN(c5ccnc(C(F)(F)F)c5)C4)C3=O)ncc12` [Cmpd 1000] yielded an EC50 (EC50 given as range classes) of less than 10 µM.
In the case of `Cc1nn(CC(F)F)c2nc(N3CCC4(CC3)CCN(c3ccc(C(F)(F)F)nc3)C4=O)ncc12` [Cmpd 831], the EC50 (EC50 given as range classes) is reported as 10 to 50 µM.
`COc1ncc(N2CCC3(CN(c4ccnc(C(F)(F)F)c4)C3)C2)nc1-c1nncs1` [Cmpd 1021] gave an EC50 (EC50 given as range classes) of 10 to 50 µM.
Work on `Cc1cc(C)c(N2CCC3(CCN(c4cnc5cnn(CC(F)F)c5n4)CC3)C2)nn1` [Cmpd 755] yielded an EC50 [1] of 10 to 50 µM.
With `Cc1cc(N2CC3(CCN(c4ncc5cnn(C6COC6)c5n4)C3)C2)nc(C)n1` [Cmpd 643] the EC50 [1] was 10 to 50 µM.
For `CC(C)Oc1cncc(N2CCC3(CCN(c4ccc(C(F)(F)F)nc4)C3)CC2)n1` [Cmpd 254], the EC50 [1] was 10 to 50 µM.
`Cc1nc(N2CCC3(C2)CN(c2cnc4cnn(CC(F)F)c4n2)C3)cc(C(F)(F)F)n1` [Cmpd 551] showed an EC50 [1] of less than 10 µM.
In the case of `FC(F)Cn1ncc2ncc(N3CCC4(C3)CN(c3nccc(C(F)(F)F)n3)C4)nc21` [Cmpd 299], the EC50 [1] is reported as 10 to 50 µM.
Work on `FC(F)Cn1ncc2ncc(N3CCCC4(CC(Oc5ccc(C(F)(F)F)nc5)C4)C3)nc21` (centres unmarked) [Compound 22, 6-[1-(2,2-difluoroethyl)-1H-pyrazolo[3,4-b]pyrazin-6-yl]-2-{[6-(trifluoromethyl)pyridin-3-yl]oxy}-6-azaspiro[3.5]nonane] yielded an EC50 [1] of 10 to 50 µM.
Compound `FC(F)(F)c1cc(N2CCC3(C2)CN(c2ncc4cnn(C5COC5)c4n2)C3)ccn1` [Cmpd 376] has an EC50 [1] of 10 to 50 µM.
Compound `Cc1nn(C2COC2)c2nc(N3CCC4(CCN(c5ccc(C(F)(F)F)nc5)C4)CC3)ncc12` [Cmpd 887] has an EC50 [1] of 10 to 50 µM.
In the case of `Cc1cc(N2CC3(CCN(c4ncc5cnn(CC(F)F)c5n4)C3)C2)nc(C)n1` [Cmpd 642], the EC50 [1] is reported as 10 to 50 µM.
Compound `Cc1nn(C2COC2)c2nc(N3CCC4(CC3)CCN(c3ccc(C(F)(F)F)nc3)C4=O)ncc12` [Cmpd 884] has an EC50 [1] of 10 to 50 µM.
Compound `O=C1N(c2nccc(C(F)(F)F)n2)CCC12CCN(c1cnc3cnn(C4COC4)c3n1)CC2` [Cmpd 278] has an EC50 [1] of less than 10 µM.
`O=C(c1cc(Cl)cc(Cl)n1)N1CC2(CCN(c3cnc4cnn(CC(F)F)c4n3)C2)C1` [Cmpd 420] gave an EC50 (EC50 given as range classes) of 10 to 50 µM.
`Cn1c(N2CCC3(CN(c4ccc(C(F)(F)F)cn4)C3)C2)nc2c(cnn2CC(F)F)c1=O` [Cmpd 996] showed an EC50 (EC50 given as range classes) of 10 to 50 µM.
`O=C1CC2(CCN(c3ccc(C(F)(F)F)cn3)C2)CN1c1cnc2cnn(CC(F)F)c2n1` (centres unmarked) [Cmpd 508] gave an EC50 [1] of 10 to 50 µM.
Work on `FC(F)Cn1ncc2ncc(N3CCC4(CC3)CN(c3ccc(C(F)(F)F)cn3)CCO4)nc21` [Cmpd 207] yielded an EC50 (EC50 given as range classes) of less than 10 µM.
In the case of `Fc1cnc(N2CCC3(CCN(c4cnc5cnn(CC(F)F)c5n4)CC3)C2)cc1C(F)(F)F` [Cmpd 740], the EC50 [1] is reported as less than 10 µM.
In the case of `Cc1ncc(C(F)(F)F)nc1N1CCC2(CCN(c3cnc4cnn(CC(F)F)c4n3)CC2)C1` [Cmpd 765], the EC50 [1] is reported as less than 10 µM.
`FC(F)Cn1ncc2ncc(N3CCC4(CC3)CC(Oc3ncccc3C(F)(F)F)C4)nc21` [Cmpd 708] showed an EC50 [1] of 10 to 50 µM.
Work on `COc1nn(CC(F)F)c2nc(N3CCC4(CN(c5cc(C)nc(C(F)(F)F)n5)C4)C3)cnc12` [Cmpd 1097] yielded an EC50 [1] of 10 to 50 µM.
For `Cc1cccc(-c2noc(C)c2C(=O)N2CCC3(CC2)CCN(c2cc(C(F)(F)F)ccn2)C3=O)c1` [Cmpd 267], the EC50 [1] was 10 to 50 µM.
In the case of `FC(F)Cn1ncc2ncc(N3CC4(CN(c5ccc(C(F)(F)F)cn5)CCO4)C3)nc21` [Compound 172, 2-[1-(2,2-difluoroethyl)-1H-pyrazolo[3,4-b]pyrazin-6-yl]-8-[5-(trifluoromethyl)pyridin-2-yl]-5-oxa-2,8-diazaspiro[3.5]nonane], the EC50 [1] is reported as 10 to 50 µM.
In the case of `Cc1cc(N2CC3(CCN(c4cnc5cnn(CC(F)(F)F)c5n4)C3)C2)nc(C(F)(F)F)n1` [Cmpd 463], the EC50 [1] is reported as 10 to 50 µM.
With `Cn1c(N2CCC3(CCN(c4ccnc(C(F)(F)F)c4)C3)CC2)nc2c(cnn2C2COC2)c1=O` [Cmpd 1059] the EC50 [1] was less than 10 µM.
`O=C1CC2(CCN(c3cnc4cnn(CC(F)F)c4n3)CC2)CN1Cc1ccc(F)c(Cl)c1` [Cmpd 449] gave an EC50 [1] of less than 10 µM.
With `Cc1nc(C(F)F)cc(N2CC3(CCN(c4cnc5cnn(CC(F)F)c5n4)C3)C2)n1` [Cmpd 1139] the EC50 [1] was less than 10 µM.
`Cc1nc(N2CC3(CCN(c4cnc5c(C)nn(CC(F)F)c5n4)CC3)C2)cc(C(F)(F)F)n1` [Cmpd 568] gave an EC50 [1] of less than 10 µM.
`COc1nn(CC(F)F)c2nc(N3CCC4(CC3)CC(=O)N(c3ccnc(C(F)(F)F)c3)C4)cnc12` [Cmpd 940] showed an EC50 [1] of less than 10 µM.
`Cc1nc(N2CC3(CCN(c4cnc5cnn(CC(F)(F)F)c5n4)CC3)C2)cc(C(F)(F)F)n1` [Cmpd 567] gave an EC50 [1] of less than 10 µM.
With `Cc1nc(N2CC3(CCN(c4ccc5cnn(CC(F)F)c5n4)C3)C2)cc(C(F)(F)F)n1` [Cmpd 621] the EC50 (EC50 given as range classes) was 10 to 50 µM.
`CC1CN(c2cnc3cnn(CC(F)F)c3n2)CC[C@@]12CCN(c1cccc(C(F)(F)F)n1)C2=O` (some centres unmarked) [Cmpd 670] was tested, and the EC50 [1] was 10 to 50 µM.
Compound `O=C1N(c2ncc(C(F)(F)F)cc2F)CCC12CCN(c1cnc3cnn(CC(F)F)c3n1)CC2` [Cmpd 777] has an EC50 [1] greater than 100 µM.
Compound `Cn1c(N2CCC3(CCN(c4ncc(C(F)(F)F)cn4)C3)CC2)nc2c(cnn2C2COC2)c1=O` [Cmpd 1058] has an EC50 [1] of 10 to 50 µM.
In the case of `FC(F)(F)c1ccc(N2CCC3(CCN(c4cncc(-n5cccn5)n4)CC3)C2)cn1` [Cmpd 239], the EC50 [1] is reported as less than 10 µM.
`Cn1c(=O)n(C2COC2)c2nc(N3CCC4(CN(c5ccnc(C(F)(F)F)c5)C4)C3)cnc21` [Cmpd 978] gave an EC50 (EC50 given as range classes) of less than 10 µM.
`Cc1ncc(N2CC3(CCN(c4ncc5cnn(CC(F)F)c5n4)C3)C2)c(C(F)(F)F)n1` [Cmpd 595] was tested, and the EC50 (EC50 given as range classes) was less than 10 µM.
`COc1nn(C2COC2)c2nc(N3CCC4(CC3)CC(=O)N(c3ccc(C(F)(F)F)nc3)C4)ncc12` [Cmpd 952] showed an EC50 [1] of 10 to 50 µM.
Compound `COc1nn(CC(F)F)c2nc(N3CCC4(CN(c5ccnc(C(F)(F)F)c5)C4)C3)ncc12` [Cmpd 938] has an EC50 [1] of 10 to 50 µM.
`FC(F)Cn1ncc2ncc(N3CCC4(CC3)CC(COc3ccnc(C(F)(F)F)c3)C4)nc21` [Cmpd 695] gave an EC50 [1] of less than 10 µM.
`Cc1cc(N2CC3(CCN(c4ncc5cnn(CC(C)(F)F)c5n4)C3)C2)nc(C(F)(F)F)n1` [Cmpd 1076] was tested, and the EC50 [1] was 10 to 50 µM.
In the case of `Cc1nc(N2CCC3(C2)CN(c2ncc4c(C)nn(CC(F)F)c4n2)C3)cc(C(F)(F)F)n1` [Cmpd 577], the EC50 [1] is reported as 10 to 50 µM.
Work on `FC(F)Cn1ncc2ncc(N3CC4(CCN(c5cccnc5C(F)(F)F)CC4)C3)nc21` [Compound 129, 2-[1-(2,2-difluoroethyl)-1H-pyrazolo[3,4-b]pyrazin-6-yl]-7-[2-(trifluoromethyl)pyridin-3-yl]-2,7-diazaspiro[3.5]nonane] yielded an EC50 [1] of 10 to 50 µM.
